# Test results as given in ChEMBL document CHEMBL4630908 (2021).
# Active and inactive are the calls of the source. The rule behind the calls is not given here.
# Legend:
# [1] = molecular target: T1, Bromodomain testis-specific protein (Homo sapiens, UniProt Q58F21); experiment: TR-FRET assay (BRDT BD1)
# Protein polybromo-1 = Protein polybromo-1 (Homo sapiens, UniProt Q86U86); experiment: PBRM1(5) DiscoverX BROMOscan
# [2] = molecular target: T2, Bromodomain-containing protein 3 (Homo sapiens, UniProt Q15059); experiment: TR-FRET assay (BRD3 BD1)
# Target sequence in this assay (Q15059 whole entry): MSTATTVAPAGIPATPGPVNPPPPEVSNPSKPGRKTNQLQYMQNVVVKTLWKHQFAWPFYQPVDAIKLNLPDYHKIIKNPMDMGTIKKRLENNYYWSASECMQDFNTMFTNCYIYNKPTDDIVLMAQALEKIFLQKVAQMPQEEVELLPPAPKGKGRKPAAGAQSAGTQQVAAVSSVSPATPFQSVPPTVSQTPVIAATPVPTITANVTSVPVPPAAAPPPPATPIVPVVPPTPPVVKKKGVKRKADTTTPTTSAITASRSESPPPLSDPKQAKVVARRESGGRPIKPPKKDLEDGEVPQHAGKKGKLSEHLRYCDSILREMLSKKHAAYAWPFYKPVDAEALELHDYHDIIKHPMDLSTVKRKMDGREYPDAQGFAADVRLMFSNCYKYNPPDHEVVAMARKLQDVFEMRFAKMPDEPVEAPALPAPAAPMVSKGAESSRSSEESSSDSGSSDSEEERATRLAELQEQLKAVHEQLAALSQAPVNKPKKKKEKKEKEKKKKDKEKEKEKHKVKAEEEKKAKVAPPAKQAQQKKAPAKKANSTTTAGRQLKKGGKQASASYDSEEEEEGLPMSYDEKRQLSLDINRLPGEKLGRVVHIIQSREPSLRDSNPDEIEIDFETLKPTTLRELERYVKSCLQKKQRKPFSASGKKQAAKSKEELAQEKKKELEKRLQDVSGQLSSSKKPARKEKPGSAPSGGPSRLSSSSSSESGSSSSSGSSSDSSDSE
# [3] = molecular target: T1, Bromodomain testis-specific protein; experiment: BRDT(2) DiscoverX BROMOscan
# [4] = molecular target: T3, Bromodomain-containing protein 2 (Homo sapiens, UniProt P25440); experiment: TR-FRET assay (BRD2 BD2)
# [5] = molecular target: T3, Bromodomain-containing protein 2; experiment: BET mutant TR-FRET assay (BRD2 BD2)
# Target sequence in this assay (P25440 whole entry, looked up, change not shown): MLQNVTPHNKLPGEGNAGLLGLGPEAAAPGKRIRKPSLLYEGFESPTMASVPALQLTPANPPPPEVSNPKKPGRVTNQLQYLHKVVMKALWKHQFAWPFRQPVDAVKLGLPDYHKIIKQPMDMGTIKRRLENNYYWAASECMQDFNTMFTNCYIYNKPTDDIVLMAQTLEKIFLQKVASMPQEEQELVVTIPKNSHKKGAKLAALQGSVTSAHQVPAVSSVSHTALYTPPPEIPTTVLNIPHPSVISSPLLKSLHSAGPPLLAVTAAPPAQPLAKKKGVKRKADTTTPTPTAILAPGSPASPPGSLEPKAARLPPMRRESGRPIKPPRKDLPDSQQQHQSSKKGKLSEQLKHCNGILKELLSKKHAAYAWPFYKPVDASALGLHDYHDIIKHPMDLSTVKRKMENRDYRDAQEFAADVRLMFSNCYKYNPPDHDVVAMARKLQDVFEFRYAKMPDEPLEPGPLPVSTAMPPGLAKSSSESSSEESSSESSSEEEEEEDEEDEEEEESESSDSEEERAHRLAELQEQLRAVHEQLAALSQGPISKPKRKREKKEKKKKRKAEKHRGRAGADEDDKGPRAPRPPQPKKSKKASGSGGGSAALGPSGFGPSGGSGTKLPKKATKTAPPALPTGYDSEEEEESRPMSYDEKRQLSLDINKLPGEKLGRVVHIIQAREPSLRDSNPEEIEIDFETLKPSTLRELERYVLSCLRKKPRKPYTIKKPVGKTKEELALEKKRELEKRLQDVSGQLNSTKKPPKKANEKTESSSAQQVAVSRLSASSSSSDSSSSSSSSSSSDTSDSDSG
# [6] = molecular target: Beta-2 adrenergic receptor (Homo sapiens, UniProt P07550); details: Compound concentration 10.0 uM
# [7] = molecular target: T1, Bromodomain testis-specific protein; experiment: TR-FRET assay (BRDT BD2)
# [8] = molecular target: D(1B) dopamine receptor (Homo sapiens) (UniProt P21918); details: Compound concentration 10.0 uM
# [9] = molecular target: D(3) dopamine receptor (Homo sapiens) (UniProt P35462); details: Compound concentration 10.0 uM
# [10] = molecular target: 5-hydroxytryptamine receptor 6 (Homo sapiens) (UniProt P50406); details: Compound concentration 10.0 uM
# Chain of 5-hydroxytryptamine receptor 6 (Homo sapiens) (P50406 whole entry): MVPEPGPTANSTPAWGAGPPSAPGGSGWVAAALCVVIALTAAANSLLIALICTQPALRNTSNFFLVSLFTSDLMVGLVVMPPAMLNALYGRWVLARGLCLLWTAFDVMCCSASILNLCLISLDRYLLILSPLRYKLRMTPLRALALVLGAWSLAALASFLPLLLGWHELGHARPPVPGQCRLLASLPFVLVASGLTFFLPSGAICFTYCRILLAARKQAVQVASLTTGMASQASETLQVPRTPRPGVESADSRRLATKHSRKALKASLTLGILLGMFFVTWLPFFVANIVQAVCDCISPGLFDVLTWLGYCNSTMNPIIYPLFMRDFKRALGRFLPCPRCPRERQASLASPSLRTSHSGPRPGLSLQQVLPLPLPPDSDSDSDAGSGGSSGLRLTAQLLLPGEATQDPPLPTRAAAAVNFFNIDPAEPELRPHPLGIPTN
# [11] = molecular target: Sigma non-opioid intracellular receptor 1 (Homo sapiens) (UniProt Q99720); details: Compound concentration 10.0 uM
# [12] = molecular target: T2, Bromodomain-containing protein 3; experiment: TR-FRET assay (BRD3 BD2)
# Target sequence in this assay (Q15059 whole entry): as the sequence (Q15059 whole entry) above
# [13] = molecular target: T4, GABA-A receptor; anion channel (Rattus norvegicus) (UniProt O09028+P15431+P18506+P18508+P19969+P20236+P23574+P23576+P28471+P28473+P30191+P62813+P63079+P63138+Q91ZM7+Q9ES14); details: Compound concentration 10.0 uM
# [14] = molecular target: Transcription initiation factor TFIID subunit 1-like (Homo sapiens, UniProt Q8IZX4); experiment: TAF1L(2) DiscoverX BROMOscan
# [15] = molecular target: 5-hydroxytryptamine receptor 1A (Homo sapiens) (UniProt P08908); details: Compound concentration 10.0 uM
# [16] = molecular target: Chromatin remodeling regulator CECR2 (Homo sapiens, UniProt Q9BXF3); experiment: CECR2 DiscoverX BROMOscan
# Chain of Chromatin remodeling regulator CECR2 (Q9BXF3 whole entry): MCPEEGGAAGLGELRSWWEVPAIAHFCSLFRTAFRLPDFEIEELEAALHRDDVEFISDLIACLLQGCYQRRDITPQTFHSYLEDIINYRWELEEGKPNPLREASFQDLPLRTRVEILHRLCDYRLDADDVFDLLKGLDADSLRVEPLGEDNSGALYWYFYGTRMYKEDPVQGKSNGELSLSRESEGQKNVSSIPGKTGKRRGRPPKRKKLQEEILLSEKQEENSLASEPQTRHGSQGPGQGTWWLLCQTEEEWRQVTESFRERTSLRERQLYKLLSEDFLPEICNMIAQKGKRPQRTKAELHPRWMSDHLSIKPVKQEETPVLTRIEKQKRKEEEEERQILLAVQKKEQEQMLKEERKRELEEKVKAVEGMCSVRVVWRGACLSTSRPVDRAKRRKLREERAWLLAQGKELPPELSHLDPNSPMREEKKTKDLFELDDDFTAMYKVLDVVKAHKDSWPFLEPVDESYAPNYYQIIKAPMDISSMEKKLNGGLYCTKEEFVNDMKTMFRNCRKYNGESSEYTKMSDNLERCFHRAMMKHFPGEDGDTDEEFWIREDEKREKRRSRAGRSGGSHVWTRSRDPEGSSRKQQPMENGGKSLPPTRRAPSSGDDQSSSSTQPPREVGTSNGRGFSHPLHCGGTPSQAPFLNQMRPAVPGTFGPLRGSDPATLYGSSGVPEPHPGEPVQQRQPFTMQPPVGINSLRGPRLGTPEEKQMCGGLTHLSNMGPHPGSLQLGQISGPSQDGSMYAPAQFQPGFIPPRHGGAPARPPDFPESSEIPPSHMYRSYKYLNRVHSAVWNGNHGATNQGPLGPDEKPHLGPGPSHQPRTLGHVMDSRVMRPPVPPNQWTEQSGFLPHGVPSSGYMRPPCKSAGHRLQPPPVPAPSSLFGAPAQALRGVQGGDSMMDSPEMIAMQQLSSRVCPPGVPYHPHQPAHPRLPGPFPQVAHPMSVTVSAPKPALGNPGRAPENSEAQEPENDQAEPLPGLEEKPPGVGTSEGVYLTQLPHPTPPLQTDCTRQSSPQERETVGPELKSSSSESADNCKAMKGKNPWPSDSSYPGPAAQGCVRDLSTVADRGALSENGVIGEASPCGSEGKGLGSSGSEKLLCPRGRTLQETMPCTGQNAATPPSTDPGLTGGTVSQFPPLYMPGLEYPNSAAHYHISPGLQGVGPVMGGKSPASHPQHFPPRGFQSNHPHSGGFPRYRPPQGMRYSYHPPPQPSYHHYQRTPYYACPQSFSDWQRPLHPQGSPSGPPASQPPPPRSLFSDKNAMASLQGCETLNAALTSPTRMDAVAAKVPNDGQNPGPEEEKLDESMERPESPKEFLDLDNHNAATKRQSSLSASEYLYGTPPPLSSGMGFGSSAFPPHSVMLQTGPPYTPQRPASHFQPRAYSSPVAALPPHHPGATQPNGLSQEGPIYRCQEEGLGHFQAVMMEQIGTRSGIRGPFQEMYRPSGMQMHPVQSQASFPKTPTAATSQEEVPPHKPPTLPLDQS
# [17] = molecular target: T3, Bromodomain-containing protein 2; experiment: BET mutant TR-FRET assay (BRD2 BD1)
# Target sequence in this assay (P25440 whole entry, looked up, change not shown): as the sequence (P25440 whole entry, looked up, change not shown) above
# [18] = molecular target: Bromodomain-containing protein 9 (Homo sapiens, UniProt Q9H8M2); experiment: BRD9 DiscoverX BROMOscan
# [19] = molecular target: Histone acetyltransferase KAT2A (Homo sapiens, UniProt Q92830); experiment: GCN5L2 DiscoverX BROMOscan
# [20] = molecular target: Beta-1 adrenergic receptor (Homo sapiens) (UniProt P08588); details: Compound concentration 10.0 uM
# Rattus norvegicus = species: Rattus norvegicus; details: Compound concentration 10.0 uM
# [21] = molecular target: Bromodomain-containing protein 8 (Homo sapiens, UniProt Q9H0E9); experiment: BRD8(2) DiscoverX BROMOscan
# [22] = molecular target: Bromodomain-containing protein 1 (Homo sapiens, UniProt O95696); experiment: BRD1 DiscoverX BROMOscan
# Chain of Bromodomain-containing protein 1 (O95696 whole entry): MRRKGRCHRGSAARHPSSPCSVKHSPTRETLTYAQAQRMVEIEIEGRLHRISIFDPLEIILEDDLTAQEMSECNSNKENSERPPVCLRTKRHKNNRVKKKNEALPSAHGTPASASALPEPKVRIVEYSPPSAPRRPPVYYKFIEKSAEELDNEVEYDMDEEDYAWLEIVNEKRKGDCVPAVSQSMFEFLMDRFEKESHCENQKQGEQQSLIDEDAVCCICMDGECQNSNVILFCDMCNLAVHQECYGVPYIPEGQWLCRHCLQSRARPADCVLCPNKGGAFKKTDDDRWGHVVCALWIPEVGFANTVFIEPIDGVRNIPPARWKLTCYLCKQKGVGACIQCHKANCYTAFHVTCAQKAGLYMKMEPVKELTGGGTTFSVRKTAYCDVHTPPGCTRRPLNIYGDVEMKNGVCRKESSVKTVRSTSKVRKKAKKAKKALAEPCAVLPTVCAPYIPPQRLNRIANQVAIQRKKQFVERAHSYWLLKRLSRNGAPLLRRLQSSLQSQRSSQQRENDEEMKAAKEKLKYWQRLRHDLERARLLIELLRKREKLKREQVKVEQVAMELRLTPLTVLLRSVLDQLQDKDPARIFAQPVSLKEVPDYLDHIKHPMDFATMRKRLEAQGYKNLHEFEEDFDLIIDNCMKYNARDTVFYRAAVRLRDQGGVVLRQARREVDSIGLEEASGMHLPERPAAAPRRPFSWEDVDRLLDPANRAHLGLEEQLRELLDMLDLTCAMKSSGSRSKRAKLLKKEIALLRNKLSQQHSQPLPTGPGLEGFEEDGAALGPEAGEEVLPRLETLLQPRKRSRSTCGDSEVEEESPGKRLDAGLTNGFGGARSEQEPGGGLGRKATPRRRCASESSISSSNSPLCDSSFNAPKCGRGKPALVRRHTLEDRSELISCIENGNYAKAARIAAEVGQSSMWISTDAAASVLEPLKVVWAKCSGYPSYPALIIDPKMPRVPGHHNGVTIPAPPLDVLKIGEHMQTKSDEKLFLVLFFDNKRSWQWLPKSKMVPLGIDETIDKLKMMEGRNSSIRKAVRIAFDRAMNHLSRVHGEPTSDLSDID
# [23] = molecular target: T2, Bromodomain-containing protein 3; experiment: BET mutant TR-FRETassay (BRD3 BD1)
# [24] = molecular target: 5-hydroxytryptamine receptor 7 (Homo sapiens) (UniProt P34969); details: Compound concentration 10.0 uM
# [25] = molecular target: 5-hydroxytryptamine receptor 1D (Homo sapiens, UniProt P28221); details: Compound concentration 10.0 uM
# [26] = molecular target: 5-hydroxytryptamine receptor 2A (Homo sapiens, UniProt P28223); experiment: (§1) Cross screening panel; details: filed as antagonist
# [27] = molecular target: 5-hydroxytryptamine receptor 2C (Homo sapiens) (UniProt P28335); experiment: as §1; details: filed as antagonist
# [28] = molecular target: T1, Bromodomain testis-specific protein; experiment: BET mutant TR-FRET assay (BRDT BD1)
# [29] = molecular target: SWI/SNF-related matrix-associated actin-dependent regulator of chromatin subfamily A member 4 (Homo sapiens, UniProt P51532); experiment: SMARCA4 DiscoverX BROMOscan
# [30] = molecular target: 5-hydroxytryptamine receptor 2B (Homo sapiens) (UniProt P41595); details: Compound concentration 10.0 uM
# [31] = molecular target: Bromodomain adjacent to zinc finger domain protein 2B (Homo sapiens, UniProt Q9UIF8); experiment: BAZ2B DiscoverX BROMOscan
# [32] = molecular target: Histone acetyltransferase KAT2B (Homo sapiens, UniProt Q92831); experiment: PCAF DiscoverX BROMOscan
# [33] = molecular target: T4, GABA-A receptor; anion channel (Rattus norvegicus); details: Compound concentration 10.0 uM; remark: listed apart in the source
# [34] = molecular target: Histamine H2 receptor (Homo sapiens) (UniProt P25021); details: Compound concentration 10.0 uM
# [35] = molecular target: Nucleosome-remodeling factor subunit BPTF (Homo sapiens, UniProt Q12830); experiment: FALZ DiscoverX BROMOscan
# [36] = molecular target: Transcription intermediary factor 1-alpha (Homo sapiens, UniProt O15164); experiment: TRIM24(BROMO.) DiscoverX BROMOscan
# [37] = molecular target: Alpha-1D adrenergic receptor (Homo sapiens) (UniProt P25100); details: Compound concentration 10.0 uM
# [38] = molecular target: Alpha-2B adrenergic receptor (Homo sapiens) (UniProt P18089); details: Compound concentration 10.0 uM
# [39] = molecular target: ATPase family AAA domain-containing protein 2B (Homo sapiens, UniProt Q9ULI0); experiment: ATAD2B DiscoverX BROMOscan
# [40] = molecular target: Alpha-1B adrenergic receptor (Homo sapiens) (UniProt P35368); details: Compound concentration 10.0 uM
# [41] = molecular target: Muscarinic acetylcholine receptor M5 (Homo sapiens) (UniProt P08912); details: Compound concentration 10.0 uM
# [42] = molecular target: Voltage-gated potassium channel, IKs; KCNQ1(Kv7.1)/KCNE1(MinK) (Homo sapiens, UniProt P15382+P51787); experiment: as §1; type: protein-complex assay
# [43] = molecular target: GABA-A receptor; anion channel; experiment: as §1; type: protein-complex assay
# [44] = molecular target: SWI/SNF-related matrix-associated actin-dependent regulator of chromatin subfamily A member 2 (Homo sapiens, UniProt P51531); experiment: SMARCA2 DiscoverX BROMOscan
# [45] = molecular target: D(4) dopamine receptor (Homo sapiens) (UniProt P21917); details: Compound concentration 10.0 uM
# Chain of D(4) dopamine receptor (Homo sapiens) (P21917 whole entry): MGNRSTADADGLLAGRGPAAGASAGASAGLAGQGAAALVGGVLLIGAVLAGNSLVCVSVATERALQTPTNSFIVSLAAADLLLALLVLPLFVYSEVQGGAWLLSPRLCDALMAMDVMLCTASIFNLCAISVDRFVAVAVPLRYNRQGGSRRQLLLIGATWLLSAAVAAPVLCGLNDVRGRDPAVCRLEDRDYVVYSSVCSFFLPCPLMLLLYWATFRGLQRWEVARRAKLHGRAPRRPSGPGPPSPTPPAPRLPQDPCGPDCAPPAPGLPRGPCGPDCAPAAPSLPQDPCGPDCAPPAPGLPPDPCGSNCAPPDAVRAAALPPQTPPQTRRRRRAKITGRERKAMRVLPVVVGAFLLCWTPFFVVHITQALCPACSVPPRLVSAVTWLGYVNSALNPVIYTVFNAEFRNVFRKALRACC
# [46] = molecular target: T2, Bromodomain-containing protein 3; experiment: BRD3(2) DiscoverX BROMOscan
# Target sequence in this assay (Q15059 whole entry): as the sequence (Q15059 whole entry) above
# [47] = molecular target: Muscarinic acetylcholine receptor M3 (Homo sapiens) (UniProt P20309); details: Compound concentration 10.0 uM
smiles,measurement,setting,value
CC(=O)Nc1c(F)cc(C(=O)N[C@H]2CC[C@H](O)CC2)cc1O[C@@H](C)c1ccccc1 [GSK046],IC50,[1],> 50.1 µM (not active)
same,Kd,Protein polybromo-1,30 µM
same,IC50,[2],36.3 µM (not active)
same,Kd,[3],0.015 µM
same,IC50,[4],0.264 µM (active)
same,pIC50,[5],6.6
same,inhibition,[6],28.1%
same,IC50,[7],0.214 µM (active)
same,inhibition,[8],21.4%
same,inhibition,[9],39.1%
same,inhibition,[10],11.4%
same,inhibition,[11],6.84%
same,IC50,[12],0.098 µM (active)
same,inhibition,[13],15.3%
same,Kd,[14],30 µM
same,inhibition,[15],-8.96%
same,Kd,[16],30 µM
same,pIC50,[17],5
same,Kd,[18],30 µM
same,Kd,[19],30 µM
same,inhibition,[20],-6.85%
same,inhibition,Rattus norvegicus,5.68%
same,Kd,[21],30 µM
same,Kd,[22],30 µM
same,pIC50,[23],4.4
same,inhibition,[24],17.6%
same,inhibition,[25],84.2%
same,fpKi,[26],< 4.6
same,fpKi,[27],< 4.6
same,pIC50,[28],4.3
same,Kd,[29],30 µM
same,inhibition,[30],-6.98%
same,Kd,[31],30 µM
same,Kd,[32],30 µM
same,inhibition,[33],0.61%
same,inhibition,[34],-7.57%
same,Kd,[35],30 µM
same,Kd,[36],30 µM
same,inhibition,[37],-6.01%
same,inhibition,[38],3.38%
same,Kd,[39],30 µM
same,inhibition,[40],-0.75%
same,inhibition,[41],0.93%
same,IC50,[42],> 25.1 µM
same,pEC50,[43],< 4
same,pIC50,[43],< 4
same,Kd,[44],30 µM
same,inhibition,[45],36%
same,Kd,[46],0.033 µM
same,inhibition,[47],16%
